Measured values reported in US8541617B2, “Cycloalkylphenyl substituted cyclic ketoenols” (Bayer Cropscience AG, priority 2006, dated 2013).
Each block holds one compound with its values, some of them ahead of it.

Legend:
[1] = test system: green peach aphid (Myzus persicae); test: Example M: Myzus persicae test, activity increase by ammonium/phosphonium salts in combination with penetrants; type: in vivo; details: for Kill (%) after 6 d +AS 1000 ppm: + ammonium sulphate 1000 ppm; for Kill (%) after 6 d +RME 1000 ppm: + rapeseed oil methyl ester 1000 ppm; for Kill (%) after 6 d: no additive
Description: Activity Increase by Ammonia/Phosphonium Salts in Combination with Penetrants
Solvent: 7 parts by weight of dimethylformamide
Emulsifier: 2 parts by weight of alkylaryl polyglycol ether
To produce a suitable preparation of active compound, 1 part by weight of active compound is mixed with the stated amounts of solvent and emulsifier and the concentrate is diluted with emulsifier-containing water to the desired concentration. For the application with penetrants (rapeseed oil methyl ester 500 EW), ammonium or phosphonium salts or ammonium salts and penetrants (rapeseed oil methyl ester 500 EW), these are in each case added in a concentration of 1000 ppm to the spray liquor.
Paprika plants (Capsicum annuum) which are heavily infested by the green peach aphid (Myzus persicae) are treated by being sprayed to run off point with the preparation of active compound at the desired concentration.
After the desired period of time, the kill in % is determined. 100% means that all animals have been killed; 0% means that none of the animals have been killed.
In this test, for example, the following compounds of the Preparation Examples show good efficacy: see table

[2] = test system: Summer barley; test: Example C: Herbicidal post-emergence action, use of safeners (crop plant damage); type: in vivo; details: no safener
Description: (§1) Herbicidal Post-Emergence Action
(§2) Seeds of monocotylos and dicotylos weed and crop plants are placed into sandy lawn in wood fibre pots or in plastic pots, covered with soil and cultivated in a greenhouse, during the vegetation period also outdoors outside of the greenhouse, under good growth conditions. Two to three weeks after sowing, the test plants are treated at the one- to three-leaf stage. The test compounds, formulated as wettable powders (WP) or liquid (EC), are, in the various dosages at a water application rate of 300 l/ha (converted), with wetting agent (0.2 to 0.3%) added, sprayed onto the plants and the surface of the soil. […]
(§3) If it is additionally to be tested as to whether safeners can improve the plant compatibility of test substances in the case of crop plants, the following options are used for applying the safener: • seeds of the crop plants are, before sowing, dressed with safener substance (the amount of safener stated in percent, based on the weight of the seed) • before the application of the test substances, the crop plants are sprayed with the safener at a certain application rate per hectare (usually 1 day before the application of the test substances) • the safener is applied together with the test substance as a tank mix (the amount of safener is stated in g/ha or as a ratio, based on the herbicide).
(§4) By comparing the effect of test substances on crop plants without or with safener treatment, it is possible to assess the effect of the safener substance.
(§5) Container trials in the greenhouse, treatment with safener 1 day prior to herbicide application

[3] = test system: Summer wheat; test: as above; type: in vivo; details: for Summer wheat observed (%), 10 days after application: greenhouse container trial; for Summer wheat observed (%): 10 days after application, no safener;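 on Summer wheat observed (%), 10 days after application: 100% means plants died and 0% means like untreated controls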
Description: as §1, §2, §3, §4, §5

[4] = Source text: Use was made of leaves which, fully developed, were cut from apple trees of the cultivar golden delicious.
Only the cuticles, free from hairs and stoma, of the upper sides of the leaves were then used. They were washed repeatedly alternating with water and a buffer solution of pH 7. The clean cuticles obtained were then mounted on Teflon plates and smoothed and dried with a gentle stream of air.
In the next step, the cuticle membranes obtained in this manner were placed into stainless steel diffusion cells (=transport chambers) for membrane transport studies. […] The arrangement was chosen such that the morphological outside of the cuticles was facing outwards, i.e. exposed to air, whereas the original inside was facing the interior of the diffusion cells.
The diffusion cells were filled with a 30% strength ethylene glycol/water solution. To determine the penetration, in each case 10 μl of the spray liquor of the composition below were applied to the outside of the cuticles. The spray liquor was prepared using local tap water of medium hardness.
After the spray liquors had been applied, the water was allowed to evaporate and the chambers were inverted and placed into thermostated taps in which temperature and atmospheric humidity over the cuticles could be adjusted using a gentle stream of air onto the cuticles with the spray coating (20° C., 60% rh).

[5] = logP determination by HPLC on a reverse-phase column (C 18), EEC Directive 79/831 Annex V.A8; type: physicochemical; details: HPLC reverse-phase C 18, 43° C., acidic range (pH 2.3), 0.1% aqueous phosphoric acid/acetonitrile; for chromatographic logP: reverse-phase HPLC column (C 18)
Description: The logP values given in the table were determined in accordance with EEC Directive 79/831 Annex V.A8 by HPLC (High Performance Liquid Chromatography) on a reverse-phase column (C 18). Temperature: 43° C.
Mobile phases for the determination in the acidic range (pH 2.3): 0.1% aqueous phosphoric acid, acetonitrile; linear gradient from 10% acetonitrile to 90% acetonitrile.
Calibration was carried out using unbranched alkan-2-ones (having 3 to 16 carbon atoms) with known logP values (determination of the logP values by retention times using linear interpolation between two successive alkanones).

[6] = 10 days after application, 12.5 g of a.i./ha
[7] = 10 days after application, 25 g of a.i./ha
[8] = 10 days after application, 50 g of a.i./ha

Structure (SMILES): COC1CCC2(CC1)NC(=O)C(c1c(C3CC3)cc(C)cc1C1CC1)=C2O (centres unmarked) [Example I-1-a-15]
Kill (%) after 6 d +AS + RME in each case 1000 ppm ([1]; 4 ppm): 95%
Kill (%) after 6 d +AS 1000 ppm ([1]; 4 ppm): 15%
Kill (%) after 6 d +RME 1000 ppm ([1]; 4 ppm): 55%
Kill (%) after 6 d ([1]; 4 ppm): 5%
Kill (%) after 6 d +AS + RME in each case 1000 ppm ([1]; 20 ppm): 98%
Kill (%) after 6 d +AS 1000 ppm ([1]; 20 ppm): 95%
Kill (%) after 6 d +RME 1000 ppm ([1]; 20 ppm): 95%
Kill (%) after 6 d ([1]; 20 ppm): 95%

Structure (SMILES): CCc1cc(C)cc(C2CC2)c1C1=C(O)C2CCCN2C1=O (centres unmarked) [Example I-1-a-18]
Summer barley observed (%) [2, 6]: 10%
Summer barley observed (%) [2, 7]: 15%
Summer barley observed (%) [2, 8]: 25%
Summer barley observed (%) ([2]; 10 days after application, 100 g of a.i./ha): 35%
Summer barley observed (%) ([2]; 28 days after application, 50 g of a.i./ha): 10%
Summer barley observed (%) ([2]; 28 days after application, 100 g of a.i./ha): 20%
Summer wheat observed (%), 10 days after application ([3]; 12.5 g of a.i./ha): 10%
Summer wheat observed (%), 10 days after application ([3]; 25 g of a.i./ha): 15%
Summer wheat observed (%), 10 days after application ([3]; 50 g of a.i./ha): 25%
Summer wheat observed (%), 10 days after application ([3]; 100 g of a.i./ha): 40%

Structure (SMILES): CCc1cc(C2CC2)cc(C2CC2)c1C1=C(O)C(C)(C)NC1=O [Example I-1-a-21]
Penetration after 24 h/% a.i. + AS (1 g/l) [4]: 1.1%
Penetration after 24 h/% a.i. + RME (1 g/l) [4]: 35.6%
Penetration after 24 h/% a.i. + RME (1 g/l) + AS (1 g/l) [4]: 56.9%

Structure (SMILES): CCOC(=O)OC1=C(c2c(C3CC3)cc(C)cc2C2CC2)C(=O)NC1(C)C [Example I-1-c-13]
Summer barley observed (%) [2, 6]: 5%
Summer barley observed (%) [2, 7]: 20%
Summer barley observed (%) [2, 8]: 30%
Summer wheat observed (%) ([3]; 12.5 g of a.i./ha): 20%
Summer wheat observed (%) ([3]; 25 g of a.i./ha): 30%
Summer wheat observed (%) ([3]; 50 g of a.i./ha): 40%

Further lines, results first:

chromatographic logP [5]: 2.81
Structure (SMILES): CCc1cc(C)cc(C2CC2)c1C1=C(O)[C@]2(CC[C@H](OC)CC2)OC1=O [Example I-2-a-1]

chromatographic logP [5]: 3.07
Structure (SMILES): CCc1cc(C)cc(C2CC2)c1C1=C(O)[C@]2(CC[C@@H](OC)CC2)OC1=O [Example I-2-a-2]

logP [5]: 2.36
Structure (SMILES): Cc1cc(C2CC2)cc(C)c1C1=C(O)C2(CCOCC2)OC1=O [Example I-2-a-5]

chromatographic logP [5]: 5.03
Structure (SMILES): CCc1cc(C)cc(C2CC2)c1C1=C(OC(=O)C(C)(C)C)[C@]2(CC[C@H](OC)CC2)OC1=O [Example I-2-b-1]

chromatographic logP [5]: 5.15
Structure (SMILES): CCOC(=O)C1(OC(=O)Cc2c(CC)cc(C)cc2C2CC2)CCC(OC)CC1 (centres unmarked) [III-1]
